From patent US20250018088A1, “COMPOSITIONS AND METHODS FOR REPAIRING DAMAGE TO SKELETAL MUSCLE” (MAYO FOUNDATION FOR MEDICAL EDUCATION AND RESEARCH, priority 2021, published 2025)

Key:
[1] = test system: Human Skeletal Muscle Myoblasts (HSMM); experiment: Resveratrol inhibition of PEP-mediated HSMM proliferation; assay type: cell-based
Method: The mechanism of PEP-induced HSMM proliferation was interrogated using resveratrol (InvivoGen, San Diego, CA), an NF-κB inhibitor, in culture grown with 2.5×10^11 PEP exosomes/mL. The concentration of PEP exosomes was chosen both because of its optimal impact on the growth of cultured HSMMs and to match the empirically determined timed release PEP concentration from TISSEEL (Baxter International, Inc., Deerfield, IL) reconstituted with 1×10^12 PEP exosomes/mL. HSMM were plated on a 96-well plate at 10,000 cells/well overnight. Resveratrol was incubated at concentrations ranging from 50 μM to 500 μM for an hour before adding 2.5×10^11 PEP exosomes/mL to each well. Data is generated from live cell proliferation analysis (INCUCYTE, Essen BioScience, Inc., Ann Arbor, MI) by acquiring phase images (10× lens; five images/well in 96-well plate with three wells/condition). Western blotting for expression of NF-κB p65 at 72 hours post inhibition was quantified and normalized (IMAGE STUDIO software, LI-COR Biosciences, Inc., Lincoln, NE) using a total protein stain.

NF-κB p65 = experiment: Western blot of NF-κB p65 expression in HSMM cells; assay type: cell-based, human; details: increasing resveratrol 50 μM to 500 μM with 2.5×10^11 exosomes/mL PEP, 72 hours
Method: Western blotting for expression of exosome markers was conducted in two different manners: traditional and Li-Cor. In the traditional method, equal amounts of protein were loaded into each lane and transferred to a PVDF membrane. The membranes were blocked in 5% nonfat dried milk diluted in TBST and incubated with primary antibodies against CD63, CD9, and Flotillin (Table 1). HIRP-conjugated secondary antibodies were used to incubate the membranes and were developed with enhanced chemiluminescence (AERSHAM, GE Healthcare, Chicago, TL). Loading was standardized to a GAPDH loading control. In the Li-Cor digital fluorescence method (Li-Cor Biosciences, Inc., Lincoln, NE), equal amounts of protein were loaded into each lane and transferred to a nitrocellulose membrane. The membranes were blocked in Li-Cor TBS Blocking Buffer and incubated with primary antibodies against NF-κB p65, and PD-L1. Secondary antibodies at 680 nm and 800 nm were used to fluorescently image the membranes using an imaging system (Odyssey CLx, Li-Cor Biosciences, Inc., Lincoln, NE). Digital fluorescent intensity was determined by IMAGE STUDIO software (Li-Cor Biosciences, Inc., Lincoln, NE) and loading was standardized by total protein stain (Li-Cor Biosciences, Inc., Lincoln, NE) for whole lane protein digital fluorescence and analyzed by EMPIRIA STUDIO software (Li-Cor Biosciences, Inc., Lincoln, NE). […]

Oc1ccc(C=Cc2cc(O)cc(O)c2)cc1 [resveratrol]
inhibition at 250 µM ([1]; Homo sapiens, Myoblast, 250 μM resveratrol, 2.5×10^11 exosomes/mL PEP, p<0.0001 vs PEP): ~50%
inhibition at 500 µM ([1]; Homo sapiens, Myoblast, 500 μM resveratrol, 2.5×10^11 exosomes/mL PEP, p<0.0001 vs PEP): ~100%
inhibition of myoblast growth ([1]; low doses of resveratrol (e.g., 50 μM), with PEP): not significantly inhibited
NF-κB expression in PEP-treated HSMM following resveratrol treatment (NF-κB p65): dose dependent decrease
